Results as given in ChEMBL document CHEMBL1201862, “PubChem BioAssay data set” (2004).
The source made the active and inactive calls.

Legend:
[1] = HIV-1 Vif–A3G interaction blockers – biochemical, TR-FRET, GST-Vif 1-94, biotin-A3G peptide, dose response retest, primary screen (AID 1117319); type: functional;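 also: TR-FRET signal of purified GST-Vif binding a biotinylated A3G peptide; inhibitors lower the FRET signal by blocking Vif and A3G binding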
Galanin receptor type 3 = biological target: T1, Galanin receptor type 3 (Homo sapiens, UniProt O60755); experiment: Fluorescence-based cell-based primary high throughput dose response assay to identify antagonists of the Galanin Receptor 3 (GalR3).; type: functional
T1 sequence (O60755 whole entry): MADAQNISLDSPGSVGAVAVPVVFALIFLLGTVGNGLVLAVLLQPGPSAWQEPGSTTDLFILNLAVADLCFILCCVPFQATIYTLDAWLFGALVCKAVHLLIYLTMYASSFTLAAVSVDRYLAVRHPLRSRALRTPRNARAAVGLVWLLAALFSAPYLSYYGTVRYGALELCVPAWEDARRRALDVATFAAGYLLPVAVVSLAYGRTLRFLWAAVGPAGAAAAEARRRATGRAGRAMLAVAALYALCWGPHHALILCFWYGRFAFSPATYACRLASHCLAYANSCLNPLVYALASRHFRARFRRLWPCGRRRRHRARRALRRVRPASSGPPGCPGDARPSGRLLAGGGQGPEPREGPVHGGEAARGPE

cells = type: functional, cell-based; conditions: HEK-CNG
[2] = M. tuberculosis H37Rv growth inhibitors, H37Rv strain (AID 1626); type: functional
[3] = reduction of Shn3 3'UTR-driven luciferase in osteoblasts – cell-based, Clone20 osteoblasts, firefly luciferase, cherry-picked, dose response (AID 624132); type: functional;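 also: firefly luciferase luminescence from reporter carrying the Shn3 3'UTR in osteoblasts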
[4] = non-specific 3'UTR reporter inhibition in Clone20-Shn3RL – cell-based, Renilla luciferase, cherry-picked, counter-screen for Shn3 inhibitor project, dose response (AID 624133); type: functional
[5] = HIV-1 AD8 envelope cell-cell fusion blockers – cherry-pick, dose response (AID 652062); type: functional, cell-based;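 also: luciferase signal from cell-cell fusion driven by HIV-1 clade B AD8 Env; potency is for inhibitors of fusion seen as a drop in luminescence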
[6] = loss of viability in HepG2 cells – cell-based, CellTiter-Glo, cherry-picked, cytotoxicity control for Shn3 inhibitor project, dose response (AID 624134); type: functional
[7] = biological target: T2, RNA-binding protein pos-1 (Caenorhabditis elegans, UniProt G5EF15); experiment: disruptors of C. elegans POS-1 RNA interaction – biochemical, fluorescence polarization, dose response (AID 1964);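 also: purified POS-1 fused to maltose binding protein made in E. coli; potency of compounds blocking POS-1 binding to fluorescent RNA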
T2 sequence (G5EF15 whole entry): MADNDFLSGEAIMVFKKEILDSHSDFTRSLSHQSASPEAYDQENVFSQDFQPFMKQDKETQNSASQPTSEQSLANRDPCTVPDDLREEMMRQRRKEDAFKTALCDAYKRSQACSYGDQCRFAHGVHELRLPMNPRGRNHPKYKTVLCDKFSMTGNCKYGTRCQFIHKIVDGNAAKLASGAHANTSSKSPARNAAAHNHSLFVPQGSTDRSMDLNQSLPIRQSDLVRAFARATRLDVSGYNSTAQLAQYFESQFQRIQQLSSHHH

Caspase-6 = biological target: T3, Caspase-6 (Homo sapiens, UniProt P55212); experiment: inhibition of CASP6 peptide cleavage – biochemical, VEID-R110 fluorescence, cherry-pick, dose response (AID 720632)
T3 sequence (P55212 whole entry): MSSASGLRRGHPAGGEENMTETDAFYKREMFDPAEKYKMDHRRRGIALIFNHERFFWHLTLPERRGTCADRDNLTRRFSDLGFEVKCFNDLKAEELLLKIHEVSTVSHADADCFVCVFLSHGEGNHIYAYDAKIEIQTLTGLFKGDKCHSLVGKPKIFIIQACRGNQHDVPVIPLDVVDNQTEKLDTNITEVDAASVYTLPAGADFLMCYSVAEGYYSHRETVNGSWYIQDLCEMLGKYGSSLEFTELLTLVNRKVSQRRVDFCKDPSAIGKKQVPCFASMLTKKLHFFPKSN

[8] = biological target: T4, Zinc finger protein mex-5 (Caenorhabditis elegans, UniProt Q9XUB2); experiment: potency of MEX-5 RNA-binding blockers – biochemical, C. elegans, fluorescence polarization, dose response (AID 1960)
T4 sequence (Q9XUB2 whole entry): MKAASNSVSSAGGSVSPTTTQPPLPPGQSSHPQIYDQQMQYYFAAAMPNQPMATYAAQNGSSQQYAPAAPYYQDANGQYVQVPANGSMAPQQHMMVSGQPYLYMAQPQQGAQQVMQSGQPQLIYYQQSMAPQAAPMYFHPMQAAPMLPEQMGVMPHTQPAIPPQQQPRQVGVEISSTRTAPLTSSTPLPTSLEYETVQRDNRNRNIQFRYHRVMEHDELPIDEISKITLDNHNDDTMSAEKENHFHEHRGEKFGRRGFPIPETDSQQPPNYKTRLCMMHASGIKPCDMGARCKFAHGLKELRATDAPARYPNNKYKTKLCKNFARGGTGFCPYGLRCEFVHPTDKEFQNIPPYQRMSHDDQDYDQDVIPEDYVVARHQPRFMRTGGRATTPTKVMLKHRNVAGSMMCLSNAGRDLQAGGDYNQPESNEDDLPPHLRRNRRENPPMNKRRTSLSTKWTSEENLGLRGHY

[9] = biological target: Peroxisome proliferator-activated receptor gamma/Nuclear receptor coactivator 3 (Homo sapiens, UniProt P37231); experiment: TR-FRET dose response biochemical High Throughput Screening assay for agonists of the steroid receptor coactivator 3 (SRC-3) recruitment by the peroxisome proliferator-activated receptor gamma (PPAR gamma): non-selective agonists. [Related pubchem assays: 1301 (Confirmation screen.), 1048 (Primary screen.)]; type: functional
[10] = biological target: Peroxisome proliferator-activated receptor gamma/Nuclear receptor coactivator 2 (Homo sapiens, UniProt P37231); experiment: (§1) TR-FRET dose response biochemical High Throughput Screening assay for agonists of the steroid receptor coactivator 2 (SRC-2) recruitment by the peroxisome proliferator-activated receptor gamma (PPAR gamma): non-selective agonists. [Related pubchem assays: 1297, 1032 ]; type: functional
[11] = biological target: Peroxisome proliferator-activated receptor gamma/Nuclear receptor coactivator 1 (Homo sapiens, UniProt P37231); experiment: as §1, with “1 (SRC-1)” for “2 (SRC-2)”, “assays (depositor defined):AID1300, AID1808, AID504735, AID631]” for “assays: 1297, 1032 ]”; type: protein assay
[12] = biological target: T5, Histone-lysine N-methyltransferase NSD2 (Homo sapiens, UniProt O96028); type: biochemical
T5 sequence (O96028 whole entry): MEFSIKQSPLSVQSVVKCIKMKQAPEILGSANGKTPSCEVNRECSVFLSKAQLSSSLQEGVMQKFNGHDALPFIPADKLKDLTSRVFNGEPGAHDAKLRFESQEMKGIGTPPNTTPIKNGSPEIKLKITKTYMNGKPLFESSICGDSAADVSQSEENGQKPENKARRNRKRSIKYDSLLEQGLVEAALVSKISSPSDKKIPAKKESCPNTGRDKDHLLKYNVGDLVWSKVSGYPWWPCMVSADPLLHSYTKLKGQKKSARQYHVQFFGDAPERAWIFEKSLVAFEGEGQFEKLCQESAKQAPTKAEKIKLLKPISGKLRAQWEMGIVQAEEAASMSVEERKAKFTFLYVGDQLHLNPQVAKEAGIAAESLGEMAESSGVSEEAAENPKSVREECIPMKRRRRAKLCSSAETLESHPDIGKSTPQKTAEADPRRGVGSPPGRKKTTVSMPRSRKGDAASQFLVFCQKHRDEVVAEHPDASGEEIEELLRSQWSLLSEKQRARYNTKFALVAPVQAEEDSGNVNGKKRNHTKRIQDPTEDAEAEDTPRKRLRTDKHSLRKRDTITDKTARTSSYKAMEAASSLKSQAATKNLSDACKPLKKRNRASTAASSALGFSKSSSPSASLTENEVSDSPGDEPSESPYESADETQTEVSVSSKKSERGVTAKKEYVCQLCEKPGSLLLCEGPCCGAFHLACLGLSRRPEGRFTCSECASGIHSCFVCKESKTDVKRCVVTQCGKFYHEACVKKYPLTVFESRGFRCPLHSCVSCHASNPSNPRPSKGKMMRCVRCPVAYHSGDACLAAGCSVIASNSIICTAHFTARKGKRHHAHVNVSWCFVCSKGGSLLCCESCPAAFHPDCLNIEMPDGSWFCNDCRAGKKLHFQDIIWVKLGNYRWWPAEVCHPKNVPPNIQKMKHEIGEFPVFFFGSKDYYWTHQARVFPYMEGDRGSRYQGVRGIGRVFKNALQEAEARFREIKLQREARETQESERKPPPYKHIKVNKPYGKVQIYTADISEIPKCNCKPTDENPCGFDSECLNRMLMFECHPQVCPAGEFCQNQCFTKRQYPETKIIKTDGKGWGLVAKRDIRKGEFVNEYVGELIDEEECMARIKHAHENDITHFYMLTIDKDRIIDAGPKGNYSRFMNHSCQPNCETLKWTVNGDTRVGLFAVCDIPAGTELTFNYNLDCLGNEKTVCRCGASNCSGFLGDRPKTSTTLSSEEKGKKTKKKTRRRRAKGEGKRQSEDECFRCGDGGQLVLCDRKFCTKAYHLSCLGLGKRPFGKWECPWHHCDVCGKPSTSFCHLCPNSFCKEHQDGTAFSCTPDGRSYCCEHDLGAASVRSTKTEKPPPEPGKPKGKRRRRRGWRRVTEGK

Cytochrome P450 2C9 = Cytochrome P450 2C9 (Homo sapiens, UniProt P11712)
Vero = experiment: cells; type: functional; conditions: Chlorocebus sabaeus
Paired box protein Pax-8 = Paired box protein Pax-8 (Homo sapiens, UniProt Q06710); experiment: PAX8 transcriptional activity inhibition in RMG-I – RMG-I cells, luciferase, cherry-pick, dose response (AID 687027); type: functional, cell-based;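 also: luciferase reporter driven by Pax8 target thyroperoxidase promoter measured by SteadyGlo luminescence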
INS1 = experiment: INS-1E survival protection against cytokine death – cell-based, luminescence, retest, dose response (AID 449756); type: functional; conditions: Rattus norvegicus;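 also: cell death triggered by IL-1 beta plus TNF-alpha plus IFN-gamma mixture; protective hits raise ATP signal compared with cytokine alone wells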
[13] = biological target: T6, Calpain-2 catalytic subunit (Sus scrofa, UniProt P43367); experiment: m-calpain protease blockers, concentration series – biochemical, fluorogenic peptide substrate, dose response (AID 1420); type: functional
T6 sequence (P43367 whole entry): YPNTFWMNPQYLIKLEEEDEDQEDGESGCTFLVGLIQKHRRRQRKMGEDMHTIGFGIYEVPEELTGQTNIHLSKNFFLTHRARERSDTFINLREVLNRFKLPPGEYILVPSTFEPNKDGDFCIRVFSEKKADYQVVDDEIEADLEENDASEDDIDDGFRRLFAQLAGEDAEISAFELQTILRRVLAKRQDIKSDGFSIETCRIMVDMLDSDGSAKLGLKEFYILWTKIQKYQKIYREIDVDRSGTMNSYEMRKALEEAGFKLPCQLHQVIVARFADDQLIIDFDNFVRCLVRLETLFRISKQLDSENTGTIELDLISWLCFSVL

[14] = biological target: Induced myeloid leukemia cell differentiation protein Mcl-1 (Homo sapiens, UniProt Q07820); type: functional
Sequence of Induced myeloid leukemia cell differentiation protein Mcl-1 (Q07820 whole entry): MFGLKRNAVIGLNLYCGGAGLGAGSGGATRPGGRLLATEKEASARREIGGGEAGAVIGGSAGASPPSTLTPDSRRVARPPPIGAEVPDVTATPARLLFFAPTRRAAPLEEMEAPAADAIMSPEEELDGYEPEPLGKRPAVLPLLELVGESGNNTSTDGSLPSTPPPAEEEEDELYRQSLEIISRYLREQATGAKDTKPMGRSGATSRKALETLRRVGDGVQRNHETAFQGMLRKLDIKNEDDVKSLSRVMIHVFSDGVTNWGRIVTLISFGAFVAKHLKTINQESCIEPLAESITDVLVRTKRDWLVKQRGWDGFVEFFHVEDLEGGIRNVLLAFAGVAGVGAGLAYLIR

Sequence of Paired box protein Pax-8 (Q06710 whole entry): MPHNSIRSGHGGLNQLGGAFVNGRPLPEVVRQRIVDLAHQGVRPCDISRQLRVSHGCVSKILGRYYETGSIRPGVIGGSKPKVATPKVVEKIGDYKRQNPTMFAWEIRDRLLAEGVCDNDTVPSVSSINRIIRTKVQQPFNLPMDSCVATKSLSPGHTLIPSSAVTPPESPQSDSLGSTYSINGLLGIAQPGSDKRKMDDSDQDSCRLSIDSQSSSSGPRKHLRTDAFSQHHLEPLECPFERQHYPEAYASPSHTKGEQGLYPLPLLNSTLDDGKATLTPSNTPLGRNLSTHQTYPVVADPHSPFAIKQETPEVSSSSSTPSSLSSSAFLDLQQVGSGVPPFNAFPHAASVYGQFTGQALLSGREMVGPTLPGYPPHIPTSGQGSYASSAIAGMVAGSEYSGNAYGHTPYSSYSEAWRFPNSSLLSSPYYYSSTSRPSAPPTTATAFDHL
Sequence of Peroxisome proliferator-activated receptor gamma/Nuclear receptor coactivator 1 (P37231 whole entry): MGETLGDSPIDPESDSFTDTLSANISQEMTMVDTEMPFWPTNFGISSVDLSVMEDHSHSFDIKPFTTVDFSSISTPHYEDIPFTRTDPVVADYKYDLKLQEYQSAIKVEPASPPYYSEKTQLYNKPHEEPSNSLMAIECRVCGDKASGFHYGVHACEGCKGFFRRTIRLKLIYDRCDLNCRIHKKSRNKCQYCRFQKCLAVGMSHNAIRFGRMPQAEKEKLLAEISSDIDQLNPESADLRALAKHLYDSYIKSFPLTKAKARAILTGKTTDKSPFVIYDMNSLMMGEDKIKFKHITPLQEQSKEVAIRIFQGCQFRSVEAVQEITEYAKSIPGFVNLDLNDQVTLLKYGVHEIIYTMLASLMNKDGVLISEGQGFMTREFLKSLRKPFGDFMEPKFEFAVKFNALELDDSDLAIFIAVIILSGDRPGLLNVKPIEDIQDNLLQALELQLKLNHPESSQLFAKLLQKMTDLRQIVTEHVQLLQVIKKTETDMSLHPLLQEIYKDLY
Sequence of Peroxisome proliferator-activated receptor gamma/Nuclear receptor coactivator 1 (Q15788 whole entry, further chain): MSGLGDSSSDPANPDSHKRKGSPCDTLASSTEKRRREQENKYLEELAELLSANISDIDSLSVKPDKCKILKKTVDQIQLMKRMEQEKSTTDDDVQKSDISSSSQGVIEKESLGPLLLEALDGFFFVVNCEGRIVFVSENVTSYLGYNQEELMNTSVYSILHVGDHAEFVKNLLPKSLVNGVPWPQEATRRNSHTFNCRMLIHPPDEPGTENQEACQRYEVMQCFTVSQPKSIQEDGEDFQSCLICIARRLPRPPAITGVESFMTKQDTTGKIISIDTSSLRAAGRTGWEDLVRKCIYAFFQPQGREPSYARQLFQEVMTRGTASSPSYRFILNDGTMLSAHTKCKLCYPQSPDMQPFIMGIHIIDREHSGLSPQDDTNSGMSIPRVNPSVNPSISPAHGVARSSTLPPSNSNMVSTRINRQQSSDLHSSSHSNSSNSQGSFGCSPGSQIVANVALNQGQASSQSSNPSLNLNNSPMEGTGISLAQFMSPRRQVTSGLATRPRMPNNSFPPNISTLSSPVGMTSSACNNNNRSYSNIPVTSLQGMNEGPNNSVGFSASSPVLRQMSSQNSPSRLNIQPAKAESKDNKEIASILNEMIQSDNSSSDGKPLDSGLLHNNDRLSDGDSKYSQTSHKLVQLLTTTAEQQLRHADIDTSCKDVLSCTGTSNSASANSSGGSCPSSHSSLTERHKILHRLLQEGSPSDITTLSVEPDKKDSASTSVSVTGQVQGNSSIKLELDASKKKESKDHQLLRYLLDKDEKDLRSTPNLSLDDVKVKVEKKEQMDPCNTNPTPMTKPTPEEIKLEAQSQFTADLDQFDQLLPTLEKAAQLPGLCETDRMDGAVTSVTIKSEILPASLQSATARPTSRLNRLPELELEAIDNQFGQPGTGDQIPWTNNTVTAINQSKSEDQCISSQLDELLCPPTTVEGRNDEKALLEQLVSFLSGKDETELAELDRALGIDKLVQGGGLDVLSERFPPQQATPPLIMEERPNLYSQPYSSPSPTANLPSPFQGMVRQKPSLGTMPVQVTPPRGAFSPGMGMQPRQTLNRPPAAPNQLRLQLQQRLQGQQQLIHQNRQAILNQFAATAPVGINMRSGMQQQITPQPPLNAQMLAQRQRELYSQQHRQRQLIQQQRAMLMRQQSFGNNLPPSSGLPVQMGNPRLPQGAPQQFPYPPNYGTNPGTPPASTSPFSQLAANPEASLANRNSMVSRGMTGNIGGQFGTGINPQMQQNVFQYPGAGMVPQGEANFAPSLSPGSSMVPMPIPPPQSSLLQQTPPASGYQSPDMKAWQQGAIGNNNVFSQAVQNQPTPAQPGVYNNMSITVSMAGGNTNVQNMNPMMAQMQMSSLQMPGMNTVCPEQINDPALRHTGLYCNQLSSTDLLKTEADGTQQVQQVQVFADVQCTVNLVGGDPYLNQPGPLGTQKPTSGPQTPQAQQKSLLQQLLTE
Sequence of Peroxisome proliferator-activated receptor gamma/Nuclear receptor coactivator 2 (P37231 whole entry): as the sequence (P37231 whole entry) above
Sequence of Peroxisome proliferator-activated receptor gamma/Nuclear receptor coactivator 2 (Q15596 whole entry, further chain): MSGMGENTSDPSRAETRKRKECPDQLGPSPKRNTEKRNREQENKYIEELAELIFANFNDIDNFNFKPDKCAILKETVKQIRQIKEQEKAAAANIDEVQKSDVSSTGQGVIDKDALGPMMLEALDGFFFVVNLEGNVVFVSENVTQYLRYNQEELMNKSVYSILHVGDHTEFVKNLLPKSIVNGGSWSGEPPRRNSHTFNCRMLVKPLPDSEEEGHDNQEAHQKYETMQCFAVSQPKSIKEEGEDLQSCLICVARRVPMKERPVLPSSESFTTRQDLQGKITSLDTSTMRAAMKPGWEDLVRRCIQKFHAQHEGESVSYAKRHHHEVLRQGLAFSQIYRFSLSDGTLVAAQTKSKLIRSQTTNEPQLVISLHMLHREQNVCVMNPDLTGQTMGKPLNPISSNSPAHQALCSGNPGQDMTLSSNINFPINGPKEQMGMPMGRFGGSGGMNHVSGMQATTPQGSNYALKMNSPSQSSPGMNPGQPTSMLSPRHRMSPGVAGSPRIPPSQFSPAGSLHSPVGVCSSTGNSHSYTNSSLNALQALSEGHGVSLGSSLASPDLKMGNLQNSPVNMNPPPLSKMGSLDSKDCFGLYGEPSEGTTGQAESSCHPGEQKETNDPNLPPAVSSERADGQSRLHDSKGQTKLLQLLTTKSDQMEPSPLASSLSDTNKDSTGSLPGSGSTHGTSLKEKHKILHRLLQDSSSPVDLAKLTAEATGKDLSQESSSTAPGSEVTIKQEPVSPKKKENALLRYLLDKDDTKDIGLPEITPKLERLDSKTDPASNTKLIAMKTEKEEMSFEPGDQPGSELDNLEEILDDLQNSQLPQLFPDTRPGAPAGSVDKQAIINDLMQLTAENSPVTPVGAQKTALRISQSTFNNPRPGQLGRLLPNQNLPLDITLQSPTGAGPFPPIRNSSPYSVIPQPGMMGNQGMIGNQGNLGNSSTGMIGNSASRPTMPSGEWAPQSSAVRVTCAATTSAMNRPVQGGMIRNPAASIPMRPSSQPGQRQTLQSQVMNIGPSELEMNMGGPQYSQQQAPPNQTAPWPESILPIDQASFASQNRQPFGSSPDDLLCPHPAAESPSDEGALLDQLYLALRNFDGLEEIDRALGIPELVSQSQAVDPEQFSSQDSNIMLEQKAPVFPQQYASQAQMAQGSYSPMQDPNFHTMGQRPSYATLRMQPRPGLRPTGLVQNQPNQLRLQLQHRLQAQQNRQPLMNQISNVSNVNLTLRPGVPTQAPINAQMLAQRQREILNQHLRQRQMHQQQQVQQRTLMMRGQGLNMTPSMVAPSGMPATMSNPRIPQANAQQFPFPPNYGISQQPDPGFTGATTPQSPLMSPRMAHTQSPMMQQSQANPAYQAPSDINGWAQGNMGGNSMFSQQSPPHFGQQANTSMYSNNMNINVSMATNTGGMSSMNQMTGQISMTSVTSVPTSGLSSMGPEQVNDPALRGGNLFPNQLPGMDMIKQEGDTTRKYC

SMILES: CCCn1c(=N)n(CC(O)c2ccco2)c2ccccc21 (stereo unspecified)
- IC50 [1]: > 100 µM (active)

SMILES: Cc1ccc(C(=O)N2c3ccc(F)cc3CCC2C)o1 (stereo unspecified)
- IC50 [1]: > 100 µM (active)

SMILES: COc1ccc(-c2cn(-c3ccc(C)c(Cl)c3)c(S)n2)cc1OC
- IC50 (Galanin receptor type 3): > 29.9 µM (inactive)
- EC50 (cells): > 29.9 µM (inactive)

SMILES: COc1ccc(N2CCN(CCNC(=O)Nc3ccc(Cl)cc3)CC2)cc1
- IC50 [1]: > 100 µM (active)

SMILES: COc1cccc(CNc2ccccc2O)c1OCc1ccccc1F
- IC50 [2]: > 100 µM (active)

SMILES: C=CCNc1nc2c(c(=O)n(C)c(=O)n2C)n1CCCCCC
- IC50 (Galanin receptor type 3): 1.95 µM (active)
- AC50 [3]: 0.761 µM (active)
- AC50 [4]: 1.18 µM (active)
- EC50 (cells): > 29.9 µM (inactive)
- AC50 [5]: 7.74 µM (active)
- AC50 [6]: 2.6 µM (active)

SMILES: N#CC1=C(N)Oc2cc(O)c(Cl)cc2C1c1ccccc1F (stereo unspecified)
- EC50 [7]: > 300 µM (not active)
- AC50 (Caspase-6): 42.2 µM (active)
- EC50 [8]: > 300 µM (not active)

SMILES: N#CC1=C(N)Oc2c(c(=O)oc3ccccc23)C1c1ccc([N+](=O)[O-])o1 (stereo unspecified)
- AC50 (Caspase-6): 13.9 µM (active)

SMILES: COc1c(F)c(F)c(C(=O)Nc2ccc3oc(-c4ccncc4)nc3c2)c(F)c1F
- EC50 [9]: 57.7 µM (not active)
- IC50 [1]: > 100 µM (active)
- EC50 [10]: 20.6 µM (not active)
- EC50 [11]: 21.5 µM (inactive)

SMILES: CCOc1ccc(NC(=O)CCn2cccc2)cc1
- IC50 [2]: > 100 µM (active)

SMILES: CN(C)c1ccc(CNCCC(Cc2ccccc2)c2ccco2)cc1 (stereo unspecified)
- AC50 [12]: > 20 µM (inactive)

SMILES: Nc1nn2c(O)c3c(nc2c1N=Nc1ccccc1)CCCC3
- IC50 (Galanin receptor type 3): 3.7 µM (active)
- EC50 (cells): > 29.9 µM (inactive)
- AC50 (Cytochrome P450 2C9): 8.91 µM (inconclusive)

SMILES: Cc1ccc(NC(=O)CCn2cnc3ccccc3c2=O)cc1Cl
- IC50 [2]: > 100 µM (active)

SMILES: CCOc1ccc(NC=C2C(=O)CC(C)(C)CC2=O)cc1
- IC50 [2]: > 100 µM (active)

SMILES: COc1ccc(-c2csc(NC(=O)c3ccccc3NS(=O)(=O)c3ccc(F)c(F)c3)n2)cc1
- IC50 (Galanin receptor type 3): 1.4 µM (active)
- CC50 (Vero): 2.03 µM (active)
- EC50 (cells): > 29.9 µM (inactive)
- AC50 (Paired box protein Pax-8): 2.64 µM (active)
- AC50 (INS1): 3.05 µM (active)
- IC50 [13]: > 50 µM (not active)

SMILES: CSc1nc2ccc(NS(=O)(=O)c3cccc(Cl)c3Cl)cc2s1
- IC50 [2]: > 100 µM (active)

SMILES: O=c1nc2s/c(=C\c3ccc(-c4ccccc4[N+](=O)[O-])o3)c(=O)n2nc1-c1ccccc1
- AC50 (Caspase-6): 18 µM (active)
- IC50 [14]: 9.66 µM (active)
